Data as given in PubChem BioAssay AID248 (DTP/NCI, 2004).
Values joined by “and” are separate entries in the source; they are usually repeats but may differ in a detail not shown here. Equal entries are not always repeated. Inconclusive results and toxic doses are left out. Cut-off read from the data, not from the text of the source: active = T/C of 150% or more; inactive = T/C below 125%.

Test system: L1210 leukemia ip in BDF1 mice, survival T/C
Experiment: NCI In Vivo Anticancer Drug Screen. Data for tumor model L1210 Leukemia (intraperitoneal) in B6D2F1 (BDF1) mice
Details: endpoint: mean survival time, higher = longer survival
Method in brief: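 Tumor cells were implanted, animals were treated, and survival was followed. The result divides the treated measurement by the vehicle-control measurement.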

[1] = dose: 100.0 mg/kg/injection, schedule: Q04DX003 (ip), vehicle: Klucel (hydroxypropylcellulose) (HPC)
[2] = dose: 200.0 mg/kg/injection, schedule: Q04DX003 (ip), vehicle: Klucel (hydroxypropylcellulose) (HPC)
[3] = dose: 400.0 mg/kg/injection, schedule: Q04DX003 (ip), vehicle: Klucel (hydroxypropylcellulose) (HPC)
[4] = dose: 100.0 mg/kg/injection, schedule: Q04DX003 (ip), vehicle: saline with Tween-80
[5] = dose: 200.0 mg/kg/injection, schedule: Q04DX003 (ip), vehicle: saline with Tween-80
[6] = dose: 400.0 mg/kg/injection, schedule: Q04DX003 (ip), vehicle: saline with Tween-80

Measured: T/C

NC(=S)NNC(=O)CN1C(=O)c2ccccc2C1=O
inactive: dose: 100.0 mg/kg/injection, schedule: Q01DX001 (ip), vehicle: Klucel (hydroxypropylcellulose) (HPC) 102 % of control | dose: 200.0 mg/kg/injection, schedule: Q01DX001 (ip), vehicle: Klucel (hydroxypropylcellulose) (HPC) 105 % of control | dose: 400.0 mg/kg/injection, schedule: Q01DX001 (ip), vehicle: Klucel (hydroxypropylcellulose) (HPC) 102 % of control

O=C(c1ccc2cc(Cl)c(Cl)cc2c1)C(Cl)Cl
inactive: dose: 25.0 mg/kg/injection, schedule: Q04DX002 (ip), vehicle: Klucel (hydroxypropylcellulose) (HPC) 90 % of control | dose: 50.0 mg/kg/injection, schedule: Q04DX002 (ip), vehicle: Klucel (hydroxypropylcellulose) (HPC) 108 % of control | dose: 100.0 mg/kg/injection, schedule: Q04DX002 (ip), vehicle: Klucel (hydroxypropylcellulose) (HPC) 93 % of control and 98 % of control

CCOC(=O)c1cnc(SCc2ccccc2Cl)nc1N1CC1
inactive: dose: 12.5 mg/kg/injection, schedule: Q01DX001 (ip), vehicle: saline 100 % of control | dose: 12.5 mg/kg/injection, schedule: Q04DX003 (ip), vehicle: saline 100 % of control | dose: 25.0 mg/kg/injection, schedule: Q01DX001 (ip), vehicle: saline 98 % of control | dose: 25.0 mg/kg/injection, schedule: Q04DX003 (ip), vehicle: saline 101 % of control | dose: 28.05 mg/kg/injection, schedule: Q01DX009 (ip), vehicle: acetone 92 % of control | dose: 42.5 mg/kg/injection, schedule: Q01DX009 (ip), vehicle: acetone 112 % of control | dose: 50.0 mg/kg/injection, schedule: Q01DX001 (ip), vehicle: saline 98 % of control | dose: 50.0 mg/kg/injection, schedule: Q04DX003 (ip), vehicle: saline 98 % of control and 100 % of control and 113 % of control | dose: 63.75 mg/kg/injection, schedule: Q01DX009 (ip), vehicle: acetone 117 % of control | dose: 75.0 mg/kg/injection, schedule: Q04DX003 (ip), vehicle: saline 102 % of control and 117 % of control | dose: 110.0 mg/kg/injection, schedule: Q04DX003 (ip), vehicle: saline 104 % of control and 120 % of control | dose: 115.0 mg/kg/injection, schedule: Q04DX003 (ip), vehicle: saline 122 % of control | dose: 170.0 mg/kg/injection, schedule: Q04DX003 (ip), vehicle: saline 115 % of control

COC(=O)CC(=O)c1ccc(OCCOc2ccc(C(C)(C)CC(C)(C)C)cc2)c([N+](=O)[O-])c1
inactive: dose: 100.0 mg/kg/injection, schedule: Q01DX009 (ip), vehicle: saline sonified 91 % of control | [1] 93 % of control | dose: 200.0 mg/kg/injection, schedule: Q01DX009 (ip), vehicle: saline sonified 96 % of control | [2] 96 % of control | dose: 400.0 mg/kg/injection, schedule: Q01DX009 (ip), vehicle: saline sonified 95 % of control | [3] 93 % of control

COc1cc([N+](=O)[O-])ccc1NC(=O)Nc1cc(Cl)c(Cl)cc1C
inactive: dose: 100.0 mg/kg/injection, schedule: Q01DX009 (ip), vehicle: Klucel (hydroxypropylcellulose) (HPC) 94 % of control | dose: 200.0 mg/kg/injection, schedule: Q01DX009 (ip), vehicle: Klucel (hydroxypropylcellulose) (HPC) 105 % of control | dose: 400.0 mg/kg/injection, schedule: Q01DX009 (ip), vehicle: Klucel (hydroxypropylcellulose) (HPC) 91 % of control

CC(=O)CC(=O)Nc1ccc(NC(C)=O)cc1
inactive: dose: 100.0 mg/kg/injection, schedule: Q01DX001 (ip), vehicle: saline 96 % of control | dose: 200.0 mg/kg/injection, schedule: Q01DX001 (ip), vehicle: saline 100 % of control | dose: 400.0 mg/kg/injection, schedule: Q01DX001 (ip), vehicle: saline 105 % of control

CCCOC(=O)N(CC)C(=NCC)c1ccc(NC(=O)c2ccc(C(=O)Nc3ccc(C(=NCC)N(CC)C(=O)OCCC)cc3)cc2)cc1
inactive: dose: 2.5 mg/kg/injection, schedule: Q01DX015 (ip), vehicle: methylcellulose (MC) 95 % of control | dose: 5.0 mg/kg/injection, schedule: Q01DX015 (ip), vehicle: methylcellulose (MC) 101 % of control | dose: 10.0 mg/kg/injection, schedule: Q01DX015 (ip), vehicle: methylcellulose (MC) 101 % of control | dose: 20.0 mg/kg/injection, schedule: Q01DX015 (ip), vehicle: methylcellulose (MC) 109 % of control | dose: 37.5 mg/kg/injection, schedule: Q01DX015 (ip), vehicle: methylcellulose (MC) 112 % of control | dose: 75.0 mg/kg/injection, schedule: Q01DX015 (ip), vehicle: methylcellulose (MC) 90 % of control | dose: 150.0 mg/kg/injection, schedule: Q01DX015 (ip), vehicle: methylcellulose (MC) 92 % of control | dose: 300.0 mg/kg/injection, schedule: Q01DX015 (ip), vehicle: methylcellulose (MC) 93 % of control

O=S(=O)(O)C(O)c1ccc(Cl)cc1Cl (configuration not stated)
inactive: dose: 100.0 mg/kg/injection, schedule: Q04DX003 (ip), vehicle: saline 102 % of control | dose: 200.0 mg/kg/injection, schedule: Q04DX003 (ip), vehicle: saline 102 % of control | dose: 400.0 mg/kg/injection, schedule: Q04DX003 (ip), vehicle: saline 107 % of control

Nc1ccc(C(=O)O)c(O)c1
inactive: dose: 37.88 mg/kg/injection, schedule: Q01DX Z (ip), vehicle: carboxymethylcellulose (CMC) 105 % of control | dose: 75.75 mg/kg/injection, schedule: Q01DX Z (ip), vehicle: carboxymethylcellulose (CMC) 96 % of control | dose: 100.0 mg/kg/injection, schedule: Q01DX001 (ip), vehicle: carboxymethylcellulose (CMC) 97 % of control | dose: 100.0 mg/kg/injection, schedule: Q01DX009 (ip), vehicle: saline with Tween-80 104 % of control | [4] 96 % of control and 97 % of control | dose: 151.5 mg/kg/injection, schedule: Q01DX Z (ip), vehicle: carboxymethylcellulose (CMC) 96 % of control | dose: 200.0 mg/kg/injection, schedule: Q01DX001 (ip), vehicle: carboxymethylcellulose (CMC) 97 % of control | dose: 200.0 mg/kg/injection, schedule: Q01DX009 (ip), vehicle: saline with Tween-80 97 % of control | [5] 95 % of control and 103 % of control | dose: 303.0 mg/kg/injection, schedule: Q01DX Z (ip), vehicle: carboxymethylcellulose (CMC) 95 % of control | dose: 400.0 mg/kg/injection, schedule: Q01DX001 (ip), vehicle: carboxymethylcellulose (CMC) 89 % of control | dose: 400.0 mg/kg/injection, schedule: Q01DX009 (ip), vehicle: saline with Tween-80 95 % of control | [6] 95 % of control and 101 % of control

CCCCP(=O)(CCCC)CCP(=O)(CCCC)CCCC
inactive: [4] 88 % of control | [5] 97 % of control

COc1ccc(-c2nc(SCc3ccccc3)[nH]c(=O)c2CCO)cc1
inactive: [1] 95 % of control | [2] 88 % of control | [3] 93 % of control

COC(=O)c1cc2c(s1)C(=O)c1ccccc1-2
inactive: [1] 104 % of control | [2] 94 % of control | [3] 105 % of control

O=c1ccn(O)cc1
inactive: dose: 100.0 mg/kg/injection, schedule: Q04DX002 (ip), vehicle: other 96 % of control | dose: 200.0 mg/kg/injection, schedule: Q04DX002 (ip), vehicle: other 100 % of control | dose: 400.0 mg/kg/injection, schedule: Q04DX002 (ip), vehicle: other 88 % of control

CN=C(NC)c1ccc(NC(=O)Nc2ccc(C)c(NC(=O)Nc3ccc(C(=NC)NC)cc3)c2)cc1
inactive: dose: 4.5 mg/kg/injection, schedule: Q01DX Z (ip), vehicle: water 98 % of control | dose: 9.0 mg/kg/injection, schedule: Q01DX Z (ip), vehicle: water 98 % of control | dose: 18.0 mg/kg/injection, schedule: Q01DX Z (ip), vehicle: water 98 % of control

Cc1ccc(C)c(NC(=S)NC(=O)c2ccc(Cl)cc2Cl)c1
inactive: dose: 100.0 mg/kg/injection, schedule: Q01DX001 (ip), vehicle: saline with Tween-80 104 % of control | dose: 100.0 mg/kg/injection, schedule: Q04DX002 (ip), vehicle: saline with Tween-80 95 % of control and 100 % of control | [4] 102 % of control | dose: 200.0 mg/kg/injection, schedule: Q01DX001 (ip), vehicle: saline with Tween-80 104 % of control | dose: 200.0 mg/kg/injection, schedule: Q04DX002 (ip), vehicle: saline with Tween-80 96 % of control and 110 % of control | [5] 105 % of control | dose: 400.0 mg/kg/injection, schedule: Q01DX001 (ip), vehicle: saline with Tween-80 100 % of control | dose: 400.0 mg/kg/injection, schedule: Q04DX002 (ip), vehicle: saline with Tween-80 96 % of control and 102 % of control | [6] 100 % of control

CSc1cccc[n+]1C
inactive: dose: 75.0 mg/kg/injection, schedule: Q01DX001 (ip), vehicle: saline 104 % of control

Clc1ccc(-c2oc(-c3ccc(Cl)cc3)c3c2CC=CC3)cc1
inactive: dose: 100.0 mg/kg/injection, schedule: Q04DX003 (ip), vehicle: gum acacia 93 % of control | dose: 200.0 mg/kg/injection, schedule: Q04DX003 (ip), vehicle: gum acacia 106 % of control | dose: 400.0 mg/kg/injection, schedule: Q04DX003 (ip), vehicle: gum acacia 97 % of control
